From the supplement of paper PMC10307832

Legend:
Experiment in all cases: relative viability (nuclei count vs DMSO), 5 days (fraction); higher = more cells survive
[1] = system: A-427
Procedure, shortened: (§1)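 Relative viability was taken as the ratio of nuclei in treated wells to nuclei in vehicle wells. Lung cancer cell lines in 1536-well plates received compounds by pin tool one day after seeding, either one drug alone or a fixed anchor-drug dose plus five library-drug doses (not always all listed) in √10 steps. Nuclei were counted on 4× images after 5 days of treatment, and values are medians of duplicate plates.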

[2] = system: EKVX
Procedure, shortened: as §1

[3] = system: NCI-H596
Procedure, shortened: as §1

[4] = system: HARA
Procedure, shortened: as §1

[5] = system: HCC-15
Procedure, shortened: as §1

[6] = system: COR-L23
Procedure, shortened: as §1

[7] = system: 201T
Procedure, shortened: as §1

[8] = system: NCI-H1975
Procedure, shortened: as §1

[9] = system: NCI-H358
Procedure, shortened: as §1

[10] = system: SW 900
Procedure, shortened: as §1

[11] = system: COR-L 105
Procedure, shortened: as §1

[12] = system: NCI-H650
Procedure, shortened: as §1

[13] = system: HCC-44
Procedure, shortened: as §1

[14] = system: NCI-H1666
Procedure, shortened: as §1

[15] = system: NCI-H1437
Procedure, shortened: as §1

[16] = system: HCC-827
Procedure, shortened: as §1

[17] = system: SK-MES-1
Procedure, shortened: as §1

[18] = system: NCI-H23
Procedure, shortened: as §1

[19] = system: NCI-H1792
Procedure, shortened: as §1

[20] = system: NCI-H838
Procedure, shortened: as §1

[21] = system: BEN
Procedure, shortened: as §1

[22] = system: NCI-H441
Procedure, shortened: as §1

[23] = system: LK-2
Procedure, shortened: as §1

## Oc1nc(-c2ccc(C(F)(F)F)cc2)nc2c1CSCC2 [XAV939] + CCNC(=O)c1noc(-c2cc(C(C)C)c(O)cc2O)c1-c1ccc(CN2CCOCC2)cc1 [Luminespib] (partner 0.01 µM)
[1]; first compound 0.08 µM
  relative viability: 1.15
[1]; first compound 0.253 µM
  relative viability: 0.978
[1]; first compound 0.8 µM
  relative viability: 0.753
[1]; first compound 2.53 µM
  relative viability: 0.782
[2]; first compound 0.08 µM
  relative viability: 0.947
[2]; first compound 0.253 µM
  relative viability: 0.786
[2]; first compound 0.8 µM
  relative viability: 0.818
[2]; first compound 2.53 µM
  relative viability: 0.7
[3]; first compound 0.08 µM
  relative viability: 1.06
[3]; first compound 0.253 µM
  relative viability: 0.881
[3]; first compound 0.8 µM
  relative viability: 1.13
[3]; first compound 2.53 µM
  relative viability: 0.873
[4]; first compound 0.08 µM
  relative viability: 1.29
[4]; first compound 0.253 µM
  relative viability: 0.877
[4]; first compound 0.8 µM
  relative viability: 0.865
[4]; first compound 2.53 µM
  relative viability: 0.675
[5]; first compound 0.08 µM
  relative viability: 0.465
[5]; first compound 0.253 µM
  relative viability: 0.295
[5]; first compound 0.8 µM
  relative viability: 0.302
[5]; first compound 2.53 µM
  relative viability: 0.235
[6]; first compound 0.08 µM
  relative viability: 0.929
[6]; first compound 0.253 µM
  relative viability: 0.642
[6]; first compound 0.8 µM
  relative viability: 0.615
[6]; first compound 2.53 µM
  relative viability: 0.792
[7]; first compound 0.08 µM
  relative viability: 1.02
[7]; first compound 0.253 µM
  relative viability: 0.994
[7]; first compound 0.8 µM
  relative viability: 1.05
[7]; first compound 2.53 µM
  relative viability: 0.877
[8]; first compound 0.08 µM
  relative viability: 0.217
[8]; first compound 0.253 µM
  relative viability: 0.246
[8]; first compound 0.8 µM
  relative viability: 0.204
[8]; first compound 2.53 µM
  relative viability: 0.139
[9]; first compound 0.08 µM
  relative viability: 0.289
[9]; first compound 0.253 µM
  relative viability: 0.32
[9]; first compound 0.8 µM
  relative viability: 0.293
[9]; first compound 2.53 µM
  relative viability: 0.412
[10]; first compound 0.08 µM
  relative viability: 0.171
[10]; first compound 0.253 µM
  relative viability: 0.18
[10]; first compound 0.8 µM
  relative viability: 0.183
[10]; first compound 2.53 µM
  relative viability: 0.151
[11]; first compound 0.08 µM
  relative viability: 0.964
[11]; first compound 0.253 µM
  relative viability: 0.742
[11]; first compound 0.8 µM
  relative viability: 0.458
[11]; first compound 2.53 µM
  relative viability: 0.763
[12]; first compound 0.08 µM
  relative viability: 0.858
[12]; first compound 0.253 µM
  relative viability: 0.75
[12]; first compound 0.8 µM
  relative viability: 0.93
[12]; first compound 2.53 µM
  relative viability: 0.745
[13]; first compound 0.08 µM
  relative viability: 1.61
[13]; first compound 0.253 µM
  relative viability: 0.981
[13]; first compound 0.8 µM
  relative viability: 1.12
[13]; first compound 2.53 µM
  relative viability: 0.974
[14]; first compound 0.08 µM
  relative viability: 1.07
[14]; first compound 0.253 µM
  relative viability: 0.666
[14]; first compound 0.8 µM
  relative viability: 0.981
[14]; first compound 2.53 µM
  relative viability: 0.848
[15]; first compound 0.08 µM
  relative viability: 1.2
[15]; first compound 0.253 µM
  relative viability: 1.09
[15]; first compound 0.8 µM
  relative viability: 1.14
[15]; first compound 2.53 µM
  relative viability: 0.911
[16]; first compound 0.08 µM
  relative viability: 0.743
[16]; first compound 0.253 µM
  relative viability: 0.739
[16]; first compound 0.8 µM
  relative viability: 0.587
[16]; first compound 2.53 µM
  relative viability: 0.396
[17]; first compound 0.08 µM
  relative viability: 0.915
[17]; first compound 0.253 µM
  relative viability: 0.726
[17]; first compound 0.8 µM
  relative viability: 0.654
[17]; first compound 2.53 µM
  relative viability: 0.48
[18]; first compound 0.08 µM
  relative viability: 0.251
[18]; first compound 0.253 µM
  relative viability: 0.214
[18]; first compound 0.8 µM
  relative viability: 0.224
[18]; first compound 2.53 µM
  relative viability: 0.221
[19]; first compound 0.08 µM
  relative viability: 0.419
[19]; first compound 0.253 µM
  relative viability: 0.391
[19]; first compound 0.8 µM
  relative viability: 0.466
[19]; first compound 2.53 µM
  relative viability: 0.464
[20]; first compound 0.08 µM
  relative viability: 0.338
[20]; first compound 0.253 µM
  relative viability: 0.37
[20]; first compound 0.8 µM
  relative viability: 0.325
[20]; first compound 2.53 µM
  relative viability: 0.304
[21]; first compound 0.08 µM
  relative viability: 0.237
[21]; first compound 0.253 µM
  relative viability: 0.211
[21]; first compound 0.8 µM
  relative viability: 0.334
[21]; first compound 2.53 µM
  relative viability: 0.262
[22]; first compound 0.08 µM
  relative viability: 0.374
[22]; first compound 0.253 µM
  relative viability: 0.355
[22]; first compound 0.8 µM
  relative viability: 0.245
[22]; first compound 2.53 µM
  relative viability: 0.282
[23]; first compound 0.08 µM
  relative viability: 0.202
[23]; first compound 0.253 µM
  relative viability: 0.183
[23]; first compound 0.8 µM
  relative viability: 0.192
[23]; first compound 2.53 µM
  relative viability: 0.167
